Patent publication US11485744B2, “High penetration prodrug compositions of antimicrobials and antimicrobial-related compounds” (priority 2009, dated 2022)

How the values were obtained:
[1] = In vitro penetration across isolated human skin in modified Franz cells
Procedure: Penetration rates of HPPs and their parent drugs through human skin were measured in vitro by modified Franz cells. A Franz cell had two chambers, the top sample chamber and the bottom receiving chamber. The human skin tissue (360-400 μm thick) that separated the top and the receiving chambers was isolated from the anterior or posterior thigh areas.
A test compound (2 mL, 10% in 0.2 M phosphate buffer, pH 7.4) was added to the sample chamber of a Franz cell. The receiving chamber contained 10 ml of 0.2 M phosphate buffer which was stirred at 600 rpm. The amount of the tested compound penetrating the skin was determined by high-performance liquid chromatography (HPLC) method.

[2] = Conversion of HPPs to parent drugs in human plasma (half life); assay type: in vitro ADME; conditions: for half-life at 9.1 mg/mL: pH 7.4
Procedure: HPPs of antimicrobials or antimicrobial-related compounds converted to the parent antimicrobials or antimicrobial-related compounds quickly in good yield in human plasma.
A HPP of antimicrobial or antimicrobial-related compound (10 mg) was dissolved in 0.1 ml of 0.2M pH 7.4 phosphate buffer. 1 ml of human plasma, preheated to 37° C., was added into the mixture. The mixture was kept in a water bath at 37° C., and at every 2 min intervals 0.2 ml of samples were withdrawn and added to 0.4 ml of methanol to precipitate the plasma protein.

| Compound | Half life of HPPs in plasma ([2]; human plasma, 37° C.) | In vitro Penetration Rate (apparent flux), HPPs ([1]; human, 10 %, pH 7.4) | half-life at 9.1 mg/mL ([2]; human, plasma) | further results |
| --- | --- | --- | --- | --- |
| CCN(CC)CCOC(=O)C1=C(COC(C)=O)CSC2C(NC(=O)Cc3cccs3)C(=O)N12.Cl (stereo not shown) [7-(2-thienylacetamido)cephalosporanic acid 2-diethylaminoethyl ester hydrochloride] | 9 ± 1 min |  |  | In vitro Penetration Rate (apparent flux), HPPs ([1]; pH 7.4): 0.62 ± 0.06 mg/cm^2/h |
| C=CC1=C(C(=O)OCCN(CC)CC)N2C(=O)C(NC(=O)/C(=N\OCC(=O)OCC)c3csc(NC(C)=O)n3)C2SC1.Cl (stereo not shown) [7-[2-(2-acetylamino-4-thiazolyl)-2-((Z)-ethoxycarbonylmethoxy)imino]acetamido]-3-(vinyl)-8-oxo-5-thia-1-azabicyclo[4.2.0]oct-2-ene-2-carboxylic acid 2-diethylaminoethyl ester hydrochloride] | 9 ± 1 min |  |  | In vitro Penetration Rate (apparent flux), HPPs ([1]; pH 7.4): 0.58 ± 0.05 mg/cm^2/h |
| CCN(CC)CCOC(=O)C1=C(Cl)CSC2C(NC(=O)C(NC(C)=O)c3ccccc3)C(=O)N12.Cl (stereo not shown) [7-[(acetylaminophenylacetyl)amino]-3-chloro-8-oxo-5-thia-1-azabicyclo[4.2.0]oct-2-ene-2-carboxylic acid 2-diethylaminoethyl ester hydrochloride] |  | 0.71 ± 0.05 mg/cm^2/h | 8 min |  |
| CCN(CC)CCOC(=O)C1=C(CSc2nnnn2C)CSC2C(NC(=O)C(O)c3ccccc3)C(=O)N12.Cl (stereo not shown) [7-[(hydroxyphenylacetyl)amino]-3-[[(1-methyl-1H-tetrazol-5-yl)thio]methyl]-8-oxo-5-thia-1-azabicyclo[4.2.0]oct-2-ene-2-carboxylic acid 2-diethylaminoethyl ester hydrochloride] |  | 0.75 ± 0.05 mg/cm^2/h | 10 min |  |
| CCN(CC)CCOC(=O)C1=C(CSc2nnnn2C)CSC2C(NC(=O)C(NC(=O)N3CCN(CC)C(=O)C3=O)c3ccc(OC(C)=O)cc3)C(=O)N12.Cl (stereo not shown) [7-[[[[(4-ethyl-2,3-dioxo-1-piperazinyl)carbonyl]amino](4-acetoxyphenyl)acetyl]amino]-3-[[(1-methyl-1H-tetrazol-5-yl)thio]methyl]-8-oxo-5-thia-1-azabicyclo[4.2.0]oct-2-ene-2-carboxylic acid 2-diethylaminoethyl ester hydrochloride] |  | 0.57 ± 0.04 mg/cm^2/h | 12 min |  |
| 3-[[(aminocarbonyl)oxy]methyl]-7-[[2-furanyl(methoxyimino)acetyl]amino]-8-oxo-5-thia-1-azabicyclo[4.2.0]oct-2-ene-2-carboxylic acid 2-diethylaminoethyl ester hydrochloride | 8 ± 1 min |  |  | In vitro Penetration Rate (apparent flux), HPPs ([1]; Table 1a, isolated human skin, Franz cells, 10% in 0.2 M phosphate buffer pH 7.4, n=5): 0.67 ± 0.04 mg/cm^2/h |
| CCN(CC)CCOC(=O)C1=C(COC(C)=O)CSC2C(NC(=O)C(=NOC)c3csc(NC(C)=O)n3)C(=O)N12.Cl (stereo not shown) [3-[(acetyloxy)methyl]-7-[[(2-acetylamino-4-thiazolyl)(methoxyimino)acetyl]amino]-8-oxo-5-thia-1-azabicyclo[4.2.0]oct-2-ene-2-carboxylic acid 2-diethylaminoethyl ester hydrochloride] |  | 0.73 ± 0.06 mg/cm^2/h | 10 min |  |
| CCN(CC)CCOC(=O)C1N2C(=O)C(NC(=O)c3c(-c4c(Cl)cccc4Cl)noc3C)C2SC1(C)C.Cl (stereo not shown) [6-[3-(2,6-dichlorophenyl)-5-methyl-4-isoxazolecarboxamido]penicillinic acid 2-diethylaminoethyl ester hydrochloride] |  |  |  | Half life of HPPs in plasma ([2]; human, plasma): 12 ± 1 min |
| CCN(CC)CCOC(=O)C1N2C(=O)C(NC(=O)[C@H](NC(=O)N3CCNC3=O)c3ccccc3)C2SC1(C)C.Cl (stereo partly drawn) [D-α-[(imidazolidin-2-on-1-yl)carbonylamino]benzylpenicillin 2-diethylaminoethyl ester hydrochloride] |  |  |  | Half life of HPPs in plasma ([2]; human, plasma): 9 ± 1 min |
